Values of other authors in patent US20200078333A1, “Healthier Aging in Domesticated Animals” (priority 2016, published 2020).
Values belong to the compound of their own block, whether it stands above or below them.

How the values were obtained:
CB1 [1] = target: T1, CB1 (Homo sapiens, UniProt P21554); conditions: Ca2+ flux induced by AEA
CB1 [2] = target: T1, CB1; conditions: read-out: binding affinity to CB1
CB2 [3] = target: T2, CB2 (Homo sapiens, UniProt P34972)
[4] = tested on: nitric oxide (NO) production; conditions: read-out: IC50 for inhibition of NO production
[5] = healthy as well as unhealthy persons
CB2 [6] = target: T2, CB2; remark: listed apart in the source
[7] = target: human CB1 cannabinoid receptors (Homo sapiens, UniProt P21554); conditions: selective binding; function as antagonists/inverse agonists
Sequence of human CB1 cannabinoid receptors (P21554 whole entry): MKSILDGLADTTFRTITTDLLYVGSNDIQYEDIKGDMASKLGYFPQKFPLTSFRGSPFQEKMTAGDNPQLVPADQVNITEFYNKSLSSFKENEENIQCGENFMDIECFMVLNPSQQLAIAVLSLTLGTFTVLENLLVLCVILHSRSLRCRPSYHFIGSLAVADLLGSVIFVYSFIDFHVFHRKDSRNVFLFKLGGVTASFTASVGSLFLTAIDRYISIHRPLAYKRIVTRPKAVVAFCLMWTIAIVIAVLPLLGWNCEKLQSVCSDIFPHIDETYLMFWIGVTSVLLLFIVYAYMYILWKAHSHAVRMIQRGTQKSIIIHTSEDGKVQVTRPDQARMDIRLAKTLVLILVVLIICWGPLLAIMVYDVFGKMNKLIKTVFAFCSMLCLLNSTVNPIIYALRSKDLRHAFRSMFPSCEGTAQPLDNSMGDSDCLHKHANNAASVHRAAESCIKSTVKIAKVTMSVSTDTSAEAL

T2 sequence (P34972 whole entry, species assumed): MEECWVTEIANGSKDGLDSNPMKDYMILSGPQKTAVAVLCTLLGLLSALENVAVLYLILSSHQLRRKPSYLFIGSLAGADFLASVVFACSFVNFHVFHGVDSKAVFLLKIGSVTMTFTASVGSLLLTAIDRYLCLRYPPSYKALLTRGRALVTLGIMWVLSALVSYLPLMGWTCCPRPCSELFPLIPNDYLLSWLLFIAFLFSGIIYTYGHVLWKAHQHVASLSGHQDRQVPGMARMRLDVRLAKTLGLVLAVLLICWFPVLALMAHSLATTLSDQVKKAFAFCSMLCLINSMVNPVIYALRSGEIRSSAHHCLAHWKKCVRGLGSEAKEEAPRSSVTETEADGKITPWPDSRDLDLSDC
T1 sequence (P21554 whole entry, species assumed): as the sequence (P21554 whole entry) above

SMILES: CC1(C)[C@@H](O)CC[C@]2(C)[C@H]3C(=O)C=C4[C@@H]5C[C@@](C)(C(=O)O)CC[C@]5(C)CC[C@@]4(C)[C@]3(C)CC[C@@H]12 [18β-glycyrrhetinic acid]
- inhibition in responses to CB1 agonist (CB1 [1]): more than 90%

SMILES: CCCCCC=CCCC=CC=CC(=O)N1CCCCC1 [1-[(2E,4E,8Z)-tetradecatrienoyl] piperidine]
- Ki (CB1 [2]): 800 nM
- CB1/CB2 affinity (CB2 selectivity) (CB2 [3]; ratio CB1/CB2): ~5
- Ki (CB2 [3]; read-out: binding affinity to CB2): 160 nM

SMILES: C=CCc1ccc(O)c(-c2cc(CC=C)ccc2O)c1 [magnolol]
- IC50 [4]: ~6200 nM

SMILES: COC1=C(OC)C(=O)C(C/C=C(\C)CC/C=C(\C)CC/C=C(\C)CC/C=C(\C)CC/C=C(\C)CC/C=C(\C)CC/C=C(\C)CC/C=C(\C)CC/C=C(\C)CCC=C(C)C)=C(C)C1=O [CoQ10, ubiquinone]
- tolerated daily dosage [5]: up to 3600 mg

- affinity for CB2 (CB2 [6]): micromolar affinity
- affinity for human CB1 cannabinoid receptors [7]: nanomolar affinities
SMILES: COc1cc(/C=C/C(=O)CC(=O)/C=C/c2ccc(O)c(OC)c2)ccc1O [curcumin]

SMILES: Oc1ccc(/C=C/c2cc(O)cc(O)c2)cc1 [trans-resveratrol]
- affinity for human CB1 cannabinoid receptors [7]: nanomolar affinities
